Measurements: PubChem BioAssay AID2060889 (Molecular Pharmacology Branch, DTP, NCI, 2025)

System: LG0567-F671-PDC complex spheroids viability
Test: Anticancer human tumor LG0567-F671-PDC patient-derived lung adenocarcinoma cell line growth inhibition [RAS]
Conditions: for viability, T/C: stronger effect = lower value
Summary of the method: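 Tumour cells grown as complex spheroids with HUVEC endothelial cells and mesenchymal stem cells, treated with RAS pathway inhibitor combinations. Each agent spans half-log steps from near clinical Cmax, or 10 microM where Cmax is unknown.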

[1] = curve of first compound, second compound 0.0316 µM
[2] = curve of first compound, second compound 0.1 µM
[3] = curve of first compound, second compound 0.316 µM
[4] = curve of first compound, second compound 1 µM
[5] = curve of first compound, second compound 3.16 µM
[6] = curve of first compound, second compound 10 µM
[7] = second compound 0.0316 µM, first compound 0.0316 µM
[8] = second compound 0.0316 µM, first compound 0.1 µM
[9] = second compound 0.0316 µM, first compound 0.316 µM
[10] = second compound 0.0316 µM, first compound 1 µM
[11] = second compound 0.0316 µM, first compound 3.16 µM
[12] = second compound 0.0316 µM, first compound 10 µM
[13] = second compound 0.1 µM, first compound 0.0316 µM
[14] = second compound 0.1 µM, first compound 0.1 µM
[15] = second compound 0.1 µM, first compound 0.316 µM
[16] = second compound 0.1 µM, first compound 1 µM
[17] = second compound 0.1 µM, first compound 3.16 µM
[18] = second compound 0.1 µM, first compound 10 µM
[19] = second compound 0.316 µM, first compound 0.0316 µM
[20] = second compound 0.316 µM, first compound 0.1 µM
[21] = second compound 0.316 µM, first compound 0.316 µM
[22] = second compound 0.316 µM, first compound 1 µM
[23] = second compound 0.316 µM, first compound 3.16 µM
[24] = second compound 0.316 µM, first compound 10 µM
[25] = second compound 1 µM, first compound 0.0316 µM
[26] = second compound 1 µM, first compound 0.1 µM
[27] = second compound 1 µM, first compound 0.316 µM
[28] = second compound 1 µM, first compound 1 µM
[29] = second compound 1 µM, first compound 3.16 µM
[30] = second compound 1 µM, first compound 10 µM
[31] = second compound 3.16 µM, first compound 0.0316 µM
[32] = second compound 3.16 µM, first compound 0.1 µM
[33] = second compound 3.16 µM, first compound 0.316 µM
[34] = second compound 3.16 µM, first compound 1 µM
[35] = second compound 10 µM, first compound 0.0316 µM
[36] = second compound 10 µM, first compound 0.1 µM
[37] = second compound 10 µM, first compound 0.316 µM
[38] = second compound 10 µM, first compound 1 µM
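Note: spheroids exposed to compound for seven days before readout.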
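Throughout, for IC50: luminescence signal used as a proxy for viable cells.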

`CC1(O)CCCC1n1c(=O)c(C(F)F)cc2cnc(NC3CCN(S(C)(=O)=O)CC3)nc21` (stereo not drawn) + C#Cc1c(F)ccc2cc(O)cc(-c3ncc4c(N5CC6CCC(C5)N6)nc(OCC56CCCN5CC(F)C6)nc4c3F)c12 gave an IC50 [1] of 5850 nM, an IC50 [2] of 6120 nM and an IC50 [3] of 3370 nM. The IC50 [4] was less than 31.6 nM, the IC50 [5] was less than 31.6 nM and the IC50 [6] was less than 31.6 nM. The viability, T/C [7] was 85.5%, the viability, T/C [8] was 68.3% and the viability, T/C [9] was 77.8%. For the same molecule, the viability, T/C [10] was 85.4%, the viability, T/C [11] was 78.9% and the viability, T/C [12] was 24.9%. It also gave a viability, T/C [13] of 72.2%, a viability, T/C [14] of 59.1% and a viability, T/C [15] of 75.2%. It also gave a viability, T/C [16] of 81.6%, a viability, T/C [17] of 76.9% and a viability, T/C [18] of 33.1%. The viability, T/C [19] was 56.1%, the viability, T/C [20] was 56.2% and the viability, T/C [21] was 62.7%. The viability, T/C [22] was 54.5%, the viability, T/C [23] was 71.1% and the viability, T/C [24] was 27.5%. It also gave a viability, T/C [25] of 33.1%, a viability, T/C [26] of 36.8% and a viability, T/C [27] of 45.6%. The viability, T/C [28] was 40%, the viability, T/C [29] was 40.6% and the viability, T/C [30] was 18.3%. It also gave a viability, T/C [31] of 17.3%, a viability, T/C [32] of 23.6% and a viability, T/C [33] of 25.2%. For the same molecule, the viability, T/C [34] was 29.3%, the viability, T/C (second compound 3.16 µM, first compound 3.16 µM) was 23.3% and the viability, T/C (second compound 3.16 µM, first compound 10 µM) was 14.6%. For the same molecule, the viability, T/C [35] was 14.2%, the viability, T/C [36] was 15.3% and the viability, T/C [37] was 17.8%. It also gave a viability, T/C [38] of 18.5%, a viability, T/C (second compound 10 µM, first compound 3.16 µM) of 14.7% and a viability, T/C (second compound 10 µM, first compound 10 µM) of 8.46%.
With `CCn1c(-c2cc(N3CCN(C)CC3)cnc2C(C)OC)c2c3cc(ccc31)-c1csc(n1)CC(NC(=O)C1CC1C)C(=O)N1CCCC(N1)C(=O)OCC(C)(C)C2` (stereo not drawn) the viability, T/C (compound 0.000949 µM) was 25.7% [middle of 8 runs], the viability, T/C (compound 0.003 µM) was 11.3% [middle of 8 runs] and the viability, T/C (compound 0.00949 µM) was 6.53% [middle of 8 runs]. For the same molecule, the viability, T/C (compound 0.03 µM) was 4.27% [middle of 8 runs], the viability, T/C (compound 0.0949 µM) was 3.45% [middle of 8 runs] and the viability, T/C (compound 0.3 µM) was 2.94% [middle of 8 runs]. It also gave an IC50 (compound alone, run of 08/26/2024) of less than 0.949 nM.
`CCN1CCN(Cc2ccc(Nc3ncc(F)c(-c4cc(F)c5nc(C)n(C(C)C)c5c4)n3)nc2)CC1` + C#Cc1c(F)ccc2cc(O)cc(-c3ncc4c(N5CC6CCC(C5)N6)nc(OCC56CCCN5CC(F)C6)nc4c3F)c12 gave an IC50 [1] greater than 1000 nM, an IC50 [2] greater than 1000 nM and an IC50 [3] of 13.1 nM. For the same molecule, the IC50 [4] was less than 3.16 nM, the IC50 [5] was less than 3.16 nM and the IC50 [6] was less than 3.16 nM. The viability, T/C (second compound 0.0316 µM, first compound 0.00316 µM) was 83.8%, the viability, T/C (second compound 0.0316 µM, first compound 0.01 µM) was 77.1% and the viability, T/C [7] was 72.8%. It also gave a viability, T/C [8] of 71.8%, a viability, T/C [9] of 61.1% and a viability, T/C [10] of 50.3%. For the same molecule, the viability, T/C (second compound 0.1 µM, first compound 0.00316 µM) was 75.9%, the viability, T/C (second compound 0.1 µM, first compound 0.01 µM) was 75% and the viability, T/C [13] was 62.2%. For the same molecule, the viability, T/C [14] was 59.1%, the viability, T/C [15] was 57.4% and the viability, T/C [16] was 50.7%. It also gave a viability, T/C (second compound 0.316 µM, first compound 0.00316 µM) of 54.4%, a viability, T/C (second compound 0.316 µM, first compound 0.01 µM) of 52.6% and a viability, T/C [19] of 46.8%. For the same molecule, the viability, T/C [20] was 44.4%, the viability, T/C [21] was 36% and the viability, T/C [22] was 39.1%. It also gave a viability, T/C (second compound 1 µM, first compound 0.00316 µM) of 37.8%, a viability, T/C (second compound 1 µM, first compound 0.01 µM) of 34.5% and a viability, T/C [25] of 30.9%. For the same molecule, the viability, T/C [26] was 27.1%, the viability, T/C [27] was 28.4% and the viability, T/C [28] was 27.3%. The viability, T/C (second compound 3.16 µM, first compound 0.00316 µM) was 20.7%, the viability, T/C (second compound 3.16 µM, first compound 0.01 µM) was 18.2% and the viability, T/C [31] was 20%. It also gave a viability, T/C [32] of 17%, a viability, T/C [33] of 19.7% and a viability, T/C [34] of 18.2%. The viability, T/C (second compound 10 µM, first compound 0.00316 µM) was 11.4%, the viability, T/C (second compound 10 µM, first compound 0.01 µM) was 10.8% and the viability, T/C [35] was 13.1%. It also gave a viability, T/C [36] of 10.7%, a viability, T/C [37] of 13.4% and a viability, T/C [38] of 16.4%.
`Cc1nc(N2CCC3(CC2)COC(C)C3N)c(CO)nc1Sc1ccnc(N)c1Cl` (stereo not drawn) + C=CC(=O)N1CCN(c2nc(OCC3CCCN3C)nc3c(F)c(-c4nc(N)cc(C)c4C(F)(F)F)c(Cl)cc23)C(C)C1 showed an IC50 (curve of first compound, second compound 0.00316 µM) of less than 31.6 nM, an IC50 (curve of first compound, second compound 0.01 µM) of less than 31.6 nM and an IC50 [1] of less than 31.6 nM. For the same molecule, the IC50 [2] was less than 31.6 nM, the IC50 [3] was less than 31.6 nM and the IC50 [4] was less than 31.6 nM. For the same molecule, the viability, T/C (second compound 0.00316 µM, first compound 0.0316 µM) was 12.4%, the viability, T/C (second compound 0.00316 µM, first compound 0.1 µM) was 7.94% and the viability, T/C (second compound 0.00316 µM, first compound 0.316 µM) was 5.15%. The viability, T/C (second compound 0.00316 µM, first compound 1 µM) was 4.23%, the viability, T/C (second compound 0.00316 µM, first compound 3.16 µM) was 3.11% and the viability, T/C (second compound 0.00316 µM, first compound 10 µM) was 3.36%. It also gave a viability, T/C (second compound 0.01 µM, first compound 0.0316 µM) of 10.9%, a viability, T/C (second compound 0.01 µM, first compound 0.1 µM) of 6.73% and a viability, T/C (second compound 0.01 µM, first compound 0.316 µM) of 5.04%. For the same molecule, the viability, T/C (second compound 0.01 µM, first compound 1 µM) was 3.41%, the viability, T/C (second compound 0.01 µM, first compound 3.16 µM) was 3.13% and the viability, T/C (second compound 0.01 µM, first compound 10 µM) was 2.84%. It also gave a viability, T/C [7] of 9.73%, a viability, T/C [8] of 7.78% and a viability, T/C [9] of 4.91%. For the same molecule, the viability, T/C [10] was 3.38%, the viability, T/C [11] was 3.09% and the viability, T/C [12] was 2.69%. It also gave a viability, T/C [13] of 9.46%, a viability, T/C [14] of 8.29% and a viability, T/C [15] of 4.85%. The viability, T/C [16] was 3.44%, the viability, T/C [17] was 3.22% and the viability, T/C [18] was 2.91%. For the same molecule, the viability, T/C [19] was 10.3%, the viability, T/C [20] was 7.09% and the viability, T/C [21] was 5.95%. The viability, T/C [22] was 4.14%, the viability, T/C [23] was 3.2% and the viability, T/C [24] was 3.39%. The viability, T/C [25] was 9.98%, the viability, T/C [26] was 8.28% and the viability, T/C [27] was 6.91%. The viability, T/C [28] was 4.16%, the viability, T/C [29] was 3.7% and the viability, T/C [30] was 4.07%.
